Consider 20 compounds from US8263598B2, “Substituted sulfonamide compounds” (Gruenenthal GmbH, priority 2008, dated 2012).

For assay [1], the target named is T1, human B1R receptor (hB1R) (Homo sapiens, UniProt P46663).
T1 construct: host or cells: CHO K1 cells
T1 sequence (P46663 1-353): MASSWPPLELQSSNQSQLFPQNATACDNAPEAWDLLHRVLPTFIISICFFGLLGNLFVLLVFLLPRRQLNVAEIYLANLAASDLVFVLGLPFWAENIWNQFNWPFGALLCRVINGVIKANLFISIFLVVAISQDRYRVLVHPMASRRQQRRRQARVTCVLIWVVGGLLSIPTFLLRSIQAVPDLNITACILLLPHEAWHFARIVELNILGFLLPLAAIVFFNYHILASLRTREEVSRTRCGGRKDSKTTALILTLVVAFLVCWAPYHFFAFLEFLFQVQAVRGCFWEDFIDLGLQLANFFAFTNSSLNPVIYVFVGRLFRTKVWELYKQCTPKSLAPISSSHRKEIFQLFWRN
The assay can be described thus: FLIPR Ca2+ assay on human bradykinin 1 receptor (CHO K1 hB1R cells). Format: cell-based. Conditions: test substance 10 μM; CHO K1 cells with human B1R gene; agonist Lys-Des-Arg9-bradykinin 0.5 nM; compared to maximum achievable inhibition. Put shortly:
(§1)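 Values are percent inhibition of agonist-evoked Ca²⁺ influx, measured by Fluo-4 fluorescence peak in FLIPR relative to maximum achievable inhibition. Compound at 10 μM was preincubated 10 min on B1R-transfected CHO K1 cells before challenge with 0.5 nM Lys-Des-Arg9-bradykinin (human) or 100 nM Des-Arg9-bradykinin (rat).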

Assay [2] has as its target T2, B1R receptor of rats (rB1R) (Rattus norvegicus, UniProt P97583).
T2 construct: host or cells: CHO K1 cells
T2 sequence (P97583 1-337): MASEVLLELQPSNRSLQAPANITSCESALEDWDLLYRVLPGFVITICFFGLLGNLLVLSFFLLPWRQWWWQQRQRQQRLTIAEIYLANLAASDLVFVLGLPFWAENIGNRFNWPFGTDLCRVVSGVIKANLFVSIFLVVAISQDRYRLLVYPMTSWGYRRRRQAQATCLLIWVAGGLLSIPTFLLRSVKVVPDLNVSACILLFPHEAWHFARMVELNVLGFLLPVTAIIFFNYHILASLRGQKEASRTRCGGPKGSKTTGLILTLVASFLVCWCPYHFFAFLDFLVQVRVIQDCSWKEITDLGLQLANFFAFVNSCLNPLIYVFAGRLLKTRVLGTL
The assay can be described thus: FLIPR Ca2+ assay on rat bradykinin 1 receptor (CHO K1 rB1R cells). Conditions: test substance 10 μM; CHO K1 cells with B1R gene of rats; agonist Des-Arg9-bradykinin 100 nM; compared to maximum achievable inhibition. The format is cell-based. Put shortly:
as §1

Molecules are shown by their SMILES.

As for `CCC1c2ccc(CN(C)C)n2CCN1C(=O)COCCN(Cc1ccccc1)S(=O)(=O)c1c(C)cc(OC)cc1C` (stereo not shown) [Example 131, N-benzyl-N-(2-(2-(6-((dimethylamino)methyl)-1-ethyl-3,4-dihydropyrrolo[1,2-a]pyrazin-2(1H)-yl)-2-oxoethoxy)ethyl)-4-methoxy-2,6-dimethylbenzene-sulfonamide], the inhibition at 10 µM in assay [1] and in assay [2] was 101% throughout.
For the compound `CCC1c2cccn2CCN1C(=O)COCCN(Cc1ccccc1)S(=O)(=O)c1c(C)cc(OC)cc1C` (stereo not shown) [Example 132, N-benzyl-N-(2-(2-(1-ethyl-3,4-dihydropyrrolo[1,2-a]pyrazin-2(1H)-yl)-2-oxoethoxy)ethyl)-4-methoxy-2,6-dimethylbenzenesulfonamide], the inhibition at 10 µM amounted to 100% in assay [1] and 102% in assay [2].
The corresponding values for `COc1cc(C)c(S(=O)(=O)N(C)CCOCC(=O)N2CCn3cccc3C2CCc2ccccc2)c(C)c1` (stereo not shown) [Example 133, 4-methoxy-N,2,6-trimethyl-N-(2-(2-oxo-2-(1-phenethyl-3,4-dihydropyrrolo[1,2-a]pyrazin-2(1H)-yl)ethoxy)ethyl)benzenesulfonamide] are 105% and 102%.
On to `CCCCC1c2ccc(CN(C)C)n2CCN1C(=O)COCCN(C)S(=O)(=O)c1c(C)cc(OC)cc1C` (stereo not shown) [Example 134, N-(2-(2-(1-butyl-6-((dimethylamino)methyl)-3,4-dihydropyrrolo[1,2-a]pyrazin-2(1H)-yl)-2-oxoethoxy)ethyl)-4-methoxy-N,2,6-trimethylbenzenesulfonamide], for which the inhibition at 10 µM in assay [1] was 104%; in assay [2], 103%.
Consider `CCC1c2cccn2CCN1C(=O)COCCN(C)S(=O)(=O)c1c(C)cc(OC)cc1C` (stereo not shown) [Example 135, N-(2-(2-(1-ethyl-3,4-dihydropyrrolo[1,2-a]pyrazin-2(1H)-yl)-2-oxoethoxy)ethyl)-4-methoxy-N,2,6-trimethylbenzenesulfonamide], for which the results for the inhibition at 10 µM in assay [1] and in assay [2] were 104% and 102%, respectively.
The corresponding values for `CCCC1c2cccn2CCN1C(=O)COCCN(C)S(=O)(=O)c1c(C)cc(OC)cc1C` (stereo not shown) [Example 136, 4-methoxy-N,2,6-trimethyl-N-(2-(2-oxo-2-(1-propyl-3,4-dihydropyrrolo[1,2-a]-pyrazin-2(1H)-yl)ethoxy)ethyl)benzenesulfonamide] are 104% and 103%.
With `COc1cc(C)c(S(=O)(=O)N(C)CCOCC(=O)N2CCn3cccc3C2C(C)C)c(C)c1` (stereo not shown) [Example 137, N-(2-(2-(1-isopropyl-3,4-dihydropyrrolo[1,2-a]pyrazin-2(1H)-yl)-2-oxoethoxy)ethyl)-4-methoxy-N,2,6-trimethylbenzenesulfonamide], the values for the inhibition at 10 µM in assay [1] and in assay [2] were 104% and 102%, respectively.
For `CCC1c2ccc(C)n2CCN1C(=O)COCCN(C)S(=O)(=O)c1c(C)cc(OC)cc1C` (stereo not shown) [Example 138, N-(2-(2-(1-ethyl-6-methyl-3,4-dihydropyrrolo[1,2-a]pyrazin-2(1H)-yl)-2-oxoethoxy)ethyl)-4-methoxy-N,2,6-trimethylbenzenesulfonamide], the figures for the inhibition at 10 µM in assay [1] and in assay [2] were 104% and 102%, respectively.
As to `Cc1cc(C)c(S(=O)(=O)N(C)CCOCC(=O)N2CCn3c(CN(C)C)ccc3C2c2ccccc2)c(C)c1` (stereo not shown) [Example 139, N-(2-(2-(6-((dimethylamino)methyl)-1-phenyl-3,4-dihydropyrrolo[1,2-a]pyrazin-2(1H)-yl)-2-oxoethoxy)ethyl)-N,2,4,6-tetramethylbenzenesulfonamide], the figures for the inhibition at 10 µM in assay [1] and in assay [2] were 102% and 103%, respectively.
Take `Cc1cc(C)c(S(=O)(=O)N(C)CCOCC(=O)N2CCn3c(CN4CCCC4)ccc3C2c2ccccc2)c(C)c1` (stereo not shown) [Example 140, N,2,4,6-tetramethyl-N-(2-(2-oxo-2-(1-phenyl-6-(pyrrolidin-1-ylmethyl)-3,4-dihydropyrrolo[1,2-a]pyrazin-2(1H)-yl)ethoxy)ethyl)benzenesulfonamide]: the inhibition at 10 µM in assay [1] amounted to 102%; in assay [2] it was 101%.
In the case of `Cc1cc(C)c(S(=O)(=O)N(C)CCOCC(=O)N2CCn3c(CN4CCCCC4)ccc3C2c2ccccc2)c(C)c1` (stereo not shown) [Example 141, N,2,4,6-tetramethyl-N-(2-(2-oxo-2-(1-phenyl-6-(piperidin-1-ylmethyl)-3,4-dihydropyrrolo[1,2-a]pyrazin-2(1H)-yl)ethoxy)ethyl)benzenesulfonamide], the inhibition at 10 µM stood at 103% in assay [1] and 101% in assay [2].
In the same order, the values of `Cc1cc(C)c(S(=O)(=O)N(C)CCOCC(=O)N2CCn3c(CN4CCOCC4)ccc3C2c2ccccc2)c(C)c1` (stereo not shown) [Example 142, N,2,4,6-tetramethyl-N-(2-(2-(6-(morpholinomethyl)-1-phenyl-3,4-dihydro-pyrrolo[1,2-a]pyrazin-2(1H)-yl)-2-oxoethoxy)ethyl)benzenesulfonamide] are 103% and 101%.
In the same order, the values of `Cc1cc(C)c(S(=O)(=O)N(C)CCOCC(=O)N2CCn3c(CN(C)C)ccc3C2Cc2ccccc2)c(C)c1` (stereo not shown) [Example 143, N-(2-(2-(1-benzyl-6-((dimethylamino)methyl)-3,4-dihydropyrrolo[1,2-a]pyrazin-2(1H)-yl)-2-oxoethoxy)ethyl)-N,2,4,6-tetramethylbenzenesulfonamide] are 100% and 99%.
The corresponding values for `Cc1cc(C)c(S(=O)(=O)N(C)CCOCC(=O)N2CCn3c(CN(C)C)ccc3C2c2cccs2)c(C)c1` (stereo not shown) [Example 144, N-(2-(2-(6-((dimethylamino)methyl)-1-(thiophen-2-yl)-3,4-dihydropyrrolo[1,2-a]pyrazin-2(1H)-yl)-2-oxoethoxy)ethyl)-N,2,4,6-tetramethylbenzenesulfonamide] are 104% and 104%.
Regarding `CCC1c2ccc(CN(C)C)n2CCN1C(=O)COCCN(C)S(=O)(=O)c1c(C)cc(C)cc1C` (stereo not shown) [Example 145, N-(2-(2-(6-((dimethylamino)methyl)-1-ethyl-3,4-dihydropyrrolo[1,2-a]pyrazin-2(1H)-yl)-2-oxoethoxy)ethyl)-N,2,4,6-tetramethylbenzenesulfonamide], the inhibition at 10 µM in assay [1] worked out at 104%; in assay [2], 103%.
Turning to `CCCC1c2cccn2CCN1C(=O)COCCN(C)S(=O)(=O)c1c(C)cc(C)cc1C` (stereo not shown) [Example 146, N,2,4,6-tetramethyl-N-(2-(2-oxo-2-(1-propyl-3,4-dihydropyrrolo[1,2-a]pyrazin-2(1H)-yl)ethoxy)ethyl)benzenesulfonamide], the inhibition at 10 µM in assay [1] and in assay [2] was 102% in each case.
Take `Cc1cc(C)c(S(=O)(=O)N(C)CCOCC(=O)N2CCn3cccc3C2C(C)C)c(C)c1` (stereo not shown) [Example 147, N-(2-(2-(1-isopropyl-3,4-dihydropyrrolo[1,2-a]pyrazin-2(1H)-yl)-2-oxoethoxy)ethyl)-N,2,4,6-tetramethylbenzenesulfonamide]: the inhibition at 10 µM in assay [1] and in assay [2] was 103% throughout.
Regarding `COc1cc(C)c(S(=O)(=O)N(C)CCOCC(=O)N2CCn3cccc3C2CCc2ccccc2)c(C)c1C` (stereo not shown) [Example 148, 4-methoxy-N,2,3,6-tetramethyl-N-(2-(2-oxo-2-(1-phenethyl-3,4-dihydropyrrolo[1,2-a]pyrazin-2(1H)-yl)ethoxy)ethyl)benzenesulfonamide], the figures for the inhibition at 10 µM in assay [1] and in assay [2] were 100% and 98%, respectively.
Turning to `COc1cc(C)c(S(=O)(=O)N(C)CCOCC(=O)N2CCn3c(CN4CCCCC4)ccc3C2c2ccccc2)c(C)c1C` (stereo not shown) [Example 149, 4-methoxy-N,2,3,6-tetramethyl-N-(2-(2-oxo-2-(1-phenyl-6-(piperidin-1-ylmethyl)-3,4-dihydropyrrolo[1,2-a]pyrazin-2(1H)-yl)ethoxy)ethyl)benzene-sulfonamide], the inhibition at 10 µM in assay [1] and in assay [2] was 104% throughout.
In the case of `COc1cc(C)c(S(=O)(=O)N(C)CCOCC(=O)N2CCn3c(CN4CCOCC4)ccc3C2c2ccccc2)c(C)c1C` (stereo not shown) [Example 150, 4-methoxy-N,2,3,6-tetramethyl-N-(2-(2-(6-(morpholinomethyl)-1-phenyl-3,4-dihydropyrrolo[1,2-a]pyrazin-2(1H)-yl)-2-oxoethoxy)ethyl)benzenesulfonamide], the inhibition at 10 µM in assay [1] and in assay [2] was 103% in each case.
